Values of other authors in patent US9750827B2, “Near-infrared dye-conjugated hyaluronic acid derivative and contrast agent for optical imaging including them” (CANON KABUSHIKI KAISHA, priority 2013, dated 2017).

Details: known in the art

CC1(C)C(/C=C/C=C/C=C/C=C2/N(CCCCS(=O)(=O)[O-])c3ccc4ccccc4c3C2(C)C)=[N+](CCCCS(=O)(=O)[O-])c2ccc3ccccc3c21.[Na+] [ICG, indocyanine green]
half-life in blood: about several minutes
